Measured values from patent US7820202B2, “Extended release particle dispersion” (Laboratorios Farmaceuticos Rovi S.A., priority 2000, dated 2010).

Key:
[1] = cited from earlier work
[2] = Drug release from extended release particles in pH 7.4 phosphate buffer; format: physicochemical; conditions: pH 7.4 phosphate buffer (simulates body fluids); compared to the water-soluble salt, leuprolide acetate
From the text: (§1) Like example 1. In addition, a water-insoluble salt of leuprolide, leuprolide oleate, was formed from aqueous leuprolide acetate and sodium oleate solutions. The insoluble salt was separated from the aqueous phase, dried and then added to the poly(d,l-lactide-co-glycolide) solution to form the first liquid preproduct, wherein the drug is dispersed and/or dissolved in the polymer solution. The first liquid preproduct is mixed with and dispersed in the second liquid preproduct.

[3] = Encapsulation efficiency of drug in PLGA extended release particles; format: physicochemical; conditions: poly(d,l-lactide-co-glycolide) particles formed by mixing two liquid preproducts (ethyl acetate polymer solution / aqueous phase)
Protocol: A solution of poly(d,l-lactide-co-glycolide) (75/25, RG752 or 50/50, RG 502H or 503H from Böhringer Ingelheim) (40% w/w) in ethyl acetate (syringe 1) (200μl) (first liquid preproduct) is mixed with an aqueous phase (water for injection, Tween 80- or alternatively Pluronic F 68-, Na carboxy methylcellulose) (syringe 2) (2ml) (second liquid preproduct) by connecting the two syringes with a connector or by screwing the two syringes together and by pushing the plungers forward and backward (25 mixing cycles). The extended release particles are thereby formed, which are dispersed in the aqueous phase and which are ready to be injected.
as §1

encapsulation efficiencies [3] [%] | Compound | solubility in water [1] | retardation in drug release [2]
 | CC(=O)OCC(COC(C)=O)OC(C)=O [triacetin] | approx. 8% | 
 | CCOC(C)=O [ethylacetate] | approx. 10% | 
> 85 | leuprolide oleate |  | even more pronounced retardation in drug release
